Measurements published in BindingDB's records for doi:10.7270/Q20K2778 (The Scripps Research Institute Molecular Screening Center, 2013).

Target: Methyl-CpG-binding domain protein 2 (Homo sapiens, UniProt Q9UBB5)
Test: inhibitors of MBD2 binding to methylated DNA, dose response, biochemical, 5-meCpG oligonucleotide (AID 720645)

Methyl-CpG-binding domain protein 2, sequence (Q9UBB5 whole entry, the tested form may be a part): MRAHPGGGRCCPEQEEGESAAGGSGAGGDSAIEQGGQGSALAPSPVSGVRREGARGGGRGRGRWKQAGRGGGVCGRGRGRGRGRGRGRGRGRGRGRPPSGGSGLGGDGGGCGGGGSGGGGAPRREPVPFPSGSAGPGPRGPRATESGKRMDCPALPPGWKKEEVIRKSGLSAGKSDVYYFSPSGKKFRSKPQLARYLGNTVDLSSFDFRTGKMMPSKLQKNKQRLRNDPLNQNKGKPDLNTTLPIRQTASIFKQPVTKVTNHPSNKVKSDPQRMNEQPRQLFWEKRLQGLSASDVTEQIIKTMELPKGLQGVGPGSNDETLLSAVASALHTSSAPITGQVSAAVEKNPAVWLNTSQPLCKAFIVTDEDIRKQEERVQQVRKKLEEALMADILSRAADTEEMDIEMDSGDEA

IC50 [µM] | Compound
4.78 | COc1ccc(-c2csc(/C(C#N)=C/C3C=CC(=O)C([N+](=O)[O-])=C3)n2)cc1OC (centres undefined) [(E)-2-[4-(3,4-Dimethoxy-phenyl)-thiazol-2-yl]-3-(4-hydroxy-3-nitro-phenyl)-acrylonitrile]
4.87 | O=C(O)CSc1cc(NS(=O)(=O)c2ccc(Cl)cc2)c2ccccc2c1O [2-[4-[(4-chlorophenyl)sulfonylamino]-1-hydroxynaphthalen-2-yl]sulfanylacetic acid]
43.8 | COc1cc(C(c2c(C)[nH][nH]c2=O)c2c(C)[nH][nH]c2=O)cc([N+](=O)[O-])c1O [4-[(3-methoxy-5-nitro-4-oxidanyl-phenyl)-(3-methyl-5-oxidanylidene-1,2-dihydropyrazol-4-yl)methyl]-5-methyl-1,2-dihydropyrazol-3-one]
8.02 | Cc1ccc2c(Cl)c(Cc3ccccc3)c(=S)[nH]c2n1 [MLS001182542]
